ChEMBL document CHEMBL4130363, “Synthesis and pharmacological evaluation of benzamide derivatives as potent and selective sigma-1 protein ligands” (Eur J Med Chem, 2017)

Columns and labels:
[1] = target: T1, Adenosine receptor A3 (Homo sapiens) (UniProt P0DMS8); assay: Antagonist activity at recombinant human adenosine A3 receptor assessed as inhibition of agonist-induced cAMP induction at 10 uM by HTRF assay; assay type: functional
T1 sequence (whole entry): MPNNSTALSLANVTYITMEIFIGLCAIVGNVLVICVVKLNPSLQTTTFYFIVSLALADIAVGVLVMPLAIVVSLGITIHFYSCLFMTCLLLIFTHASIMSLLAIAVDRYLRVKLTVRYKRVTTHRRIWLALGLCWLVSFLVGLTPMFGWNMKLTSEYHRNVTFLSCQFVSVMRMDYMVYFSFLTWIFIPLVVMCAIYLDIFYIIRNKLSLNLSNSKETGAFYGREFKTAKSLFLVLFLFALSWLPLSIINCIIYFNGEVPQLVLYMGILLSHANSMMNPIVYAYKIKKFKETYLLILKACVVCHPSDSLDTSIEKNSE

[2] = target: T2, Type-1 angiotensin II receptor (Homo sapiens) (UniProt P30556); assay: Antagonist activity at recombinant human AT1 receptor assessed as inhibition of agonist-induced […] reporter based assay; assay type: functional
T2 sequence (whole entry): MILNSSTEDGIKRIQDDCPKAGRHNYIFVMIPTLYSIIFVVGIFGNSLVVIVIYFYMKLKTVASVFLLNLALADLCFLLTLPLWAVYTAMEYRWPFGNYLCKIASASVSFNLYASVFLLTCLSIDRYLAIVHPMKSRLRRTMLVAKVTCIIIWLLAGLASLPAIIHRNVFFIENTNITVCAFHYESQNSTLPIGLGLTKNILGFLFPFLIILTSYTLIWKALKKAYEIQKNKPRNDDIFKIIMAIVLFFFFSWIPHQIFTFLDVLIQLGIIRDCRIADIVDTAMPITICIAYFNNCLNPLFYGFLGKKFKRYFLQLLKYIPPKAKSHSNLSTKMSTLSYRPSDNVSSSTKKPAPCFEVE

[3] = target: Cannabinoid receptor 1 (Homo sapiens) (UniProt P21554); assay: Antagonist activity at recombinant human CB1 receptor assessed as inhibition of agonist-induced cAMP induction at 10 uM by HTRF assay; assay type: functional
[4] = target: T3, Endothelin-1 receptor (Homo sapiens) (UniProt P25101); assay: Antagonist activity at recombinant human ETA receptor assessed as inhibition of agonist induced effect at 10 uM by aequorin reporter based assay; assay type: functional
T3 sequence (whole entry): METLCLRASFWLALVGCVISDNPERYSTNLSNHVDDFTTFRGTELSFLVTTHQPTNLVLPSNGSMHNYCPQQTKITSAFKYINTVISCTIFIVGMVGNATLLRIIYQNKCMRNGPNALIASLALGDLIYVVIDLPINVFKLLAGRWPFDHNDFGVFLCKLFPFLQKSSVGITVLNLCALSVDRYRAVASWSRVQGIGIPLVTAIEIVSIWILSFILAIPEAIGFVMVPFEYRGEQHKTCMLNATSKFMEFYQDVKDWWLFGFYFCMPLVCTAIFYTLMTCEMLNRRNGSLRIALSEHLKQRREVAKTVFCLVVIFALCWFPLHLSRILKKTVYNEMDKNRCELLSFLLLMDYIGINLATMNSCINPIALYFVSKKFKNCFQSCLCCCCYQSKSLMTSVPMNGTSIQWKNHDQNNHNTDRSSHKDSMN

[5] = target: T4, Muscarinic acetylcholine receptor M1 (Homo sapiens) (UniProt P11229); assay: Agonist activity at recombinant human muscarinic M1 receptor at 10 uM by aequorin reporter based assay relative to agonist; assay type: functional
T4 sequence (whole entry): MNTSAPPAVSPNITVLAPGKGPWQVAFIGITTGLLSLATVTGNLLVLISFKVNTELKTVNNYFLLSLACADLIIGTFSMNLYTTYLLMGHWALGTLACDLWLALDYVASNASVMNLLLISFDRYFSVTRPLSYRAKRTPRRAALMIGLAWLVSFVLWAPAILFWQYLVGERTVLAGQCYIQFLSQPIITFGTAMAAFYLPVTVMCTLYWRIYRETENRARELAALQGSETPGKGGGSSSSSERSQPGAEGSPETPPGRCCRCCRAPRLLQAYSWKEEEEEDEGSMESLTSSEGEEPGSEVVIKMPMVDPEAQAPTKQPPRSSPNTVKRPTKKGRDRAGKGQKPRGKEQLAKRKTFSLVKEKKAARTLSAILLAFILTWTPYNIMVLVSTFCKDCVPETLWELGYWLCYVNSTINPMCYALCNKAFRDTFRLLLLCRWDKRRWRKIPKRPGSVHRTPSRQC

[6] = target: Muscarinic acetylcholine receptor M3 (Homo sapiens) (UniProt P20309); assay: Agonist activity at recombinant human muscarinic M3 receptor at 10 uM by aequorin reporter based assay relative to agonist; assay type: functional
[7] = target: Glutamate [NMDA] receptor (Homo sapiens) (UniProt Q05586+Q12879+Q13224+O15399+O60391+Q14957+Q8TCU5); assay: Antagonist activity at recombinant human NMDA receptor assessed as inhibition of agonist-induced cAMP levels at 10 uM; assay type: protein-complex assay
[8] = target: T5, Neuropeptide Y receptor type 1 (Homo sapiens) (UniProt P25929); assay: Antagonist activity at recombinant human NPY1R assessed as inhibition of agonist-induced cAMP levels at 10 uM by HTRF assay; assay type: functional
T5 sequence (whole entry): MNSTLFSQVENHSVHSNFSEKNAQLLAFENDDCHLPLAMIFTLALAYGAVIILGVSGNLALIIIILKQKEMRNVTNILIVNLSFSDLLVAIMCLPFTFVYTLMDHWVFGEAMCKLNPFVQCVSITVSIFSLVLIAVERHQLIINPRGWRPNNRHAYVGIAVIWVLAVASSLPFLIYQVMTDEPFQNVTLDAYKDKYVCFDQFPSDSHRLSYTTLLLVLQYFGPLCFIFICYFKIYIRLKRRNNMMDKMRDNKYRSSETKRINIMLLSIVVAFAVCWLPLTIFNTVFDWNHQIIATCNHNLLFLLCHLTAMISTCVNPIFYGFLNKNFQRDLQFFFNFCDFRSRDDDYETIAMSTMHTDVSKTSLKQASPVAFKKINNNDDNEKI

[9] = target: Delta-type opioid receptor (Homo sapiens) (UniProt P41143); assay: Antagonist activity at human delta-type opioid receptor assessed as inhibition of agonist-induced effect at 10 uM by GTPgamma[35S] binding-based assay; assay type: functional
[10] = target: Mu-type opioid receptor (Homo sapiens) (UniProt P35372); assay: Antagonist activity at human mu-type opioid receptor assessed as inhibition of agonist-induced effect at 10 uM by GTPgamma[35S] binding-based assay; assay type: functional
[11] = target: Vasopressin V1a receptor (Homo sapiens) (UniProt P37288); assay: Antagonist activity at recombinant human V1A receptor assessed as inhibition of agonist-induced effect at 10 uM by aequorin reporter based assay; assay type: functional
[12] = target: 5-hydroxytryptamine receptor 7 (Homo sapiens) (UniProt P34969); assay: Antagonist activity at recombinant human 5-HT7R assessed as inhibition of agonist-induced cAMP induction at 10 uM by HTRF assay; assay type: functional
SH-SY5Y = assay: Cytotoxicity against human SH-SY5Y cells assessed as reduction in cell viability after 72 hrs by MTT assay; assay type: cell-based
S1R (sigma-1 receptor) = assay: Selectivity index, ratio of IC50 for human SH-SY5Y cells to Ki for S1R in human Jurkat cell membranes; assay type: toxicity, cell-based

Delta-type opioid receptor (Homo sapiens), sequence (P41143 whole entry): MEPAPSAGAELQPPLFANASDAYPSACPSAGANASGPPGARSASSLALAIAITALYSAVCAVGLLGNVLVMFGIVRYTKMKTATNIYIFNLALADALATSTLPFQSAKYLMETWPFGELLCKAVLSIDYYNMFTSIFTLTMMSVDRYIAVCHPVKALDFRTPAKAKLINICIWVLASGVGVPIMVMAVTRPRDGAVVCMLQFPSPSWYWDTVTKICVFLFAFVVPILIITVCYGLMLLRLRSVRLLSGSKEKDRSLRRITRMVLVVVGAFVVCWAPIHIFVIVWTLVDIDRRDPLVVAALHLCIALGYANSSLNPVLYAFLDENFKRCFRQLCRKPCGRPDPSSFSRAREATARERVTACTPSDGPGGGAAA
Cannabinoid receptor 1 (Homo sapiens), sequence (P21554 whole entry): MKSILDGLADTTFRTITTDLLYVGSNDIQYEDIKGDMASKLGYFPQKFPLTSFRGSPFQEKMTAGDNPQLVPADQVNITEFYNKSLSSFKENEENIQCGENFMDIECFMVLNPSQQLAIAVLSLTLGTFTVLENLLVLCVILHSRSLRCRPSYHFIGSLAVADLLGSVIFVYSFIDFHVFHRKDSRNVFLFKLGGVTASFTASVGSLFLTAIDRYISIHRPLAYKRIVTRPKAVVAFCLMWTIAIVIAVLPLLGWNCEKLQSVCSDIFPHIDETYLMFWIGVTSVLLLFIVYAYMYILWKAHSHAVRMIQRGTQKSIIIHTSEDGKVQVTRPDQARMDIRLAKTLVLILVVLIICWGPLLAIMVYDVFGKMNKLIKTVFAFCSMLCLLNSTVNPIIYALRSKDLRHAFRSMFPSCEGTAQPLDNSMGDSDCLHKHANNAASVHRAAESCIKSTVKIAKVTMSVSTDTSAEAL
5-hydroxytryptamine receptor 7 (Homo sapiens), sequence (P34969 whole entry): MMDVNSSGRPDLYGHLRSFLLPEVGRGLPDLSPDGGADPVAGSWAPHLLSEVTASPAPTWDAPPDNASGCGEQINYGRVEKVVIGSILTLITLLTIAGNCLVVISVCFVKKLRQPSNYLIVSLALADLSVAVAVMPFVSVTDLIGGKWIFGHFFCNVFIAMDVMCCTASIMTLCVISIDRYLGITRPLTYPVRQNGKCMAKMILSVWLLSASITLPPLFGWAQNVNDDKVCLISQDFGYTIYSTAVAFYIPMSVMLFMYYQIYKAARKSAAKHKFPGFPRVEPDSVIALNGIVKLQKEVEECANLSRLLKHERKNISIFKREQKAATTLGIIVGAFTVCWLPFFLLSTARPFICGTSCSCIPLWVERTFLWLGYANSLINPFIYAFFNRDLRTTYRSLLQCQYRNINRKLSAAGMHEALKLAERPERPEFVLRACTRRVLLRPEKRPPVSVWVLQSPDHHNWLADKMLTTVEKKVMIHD
Vasopressin V1a receptor (Homo sapiens), sequence (P37288 whole entry, looked up): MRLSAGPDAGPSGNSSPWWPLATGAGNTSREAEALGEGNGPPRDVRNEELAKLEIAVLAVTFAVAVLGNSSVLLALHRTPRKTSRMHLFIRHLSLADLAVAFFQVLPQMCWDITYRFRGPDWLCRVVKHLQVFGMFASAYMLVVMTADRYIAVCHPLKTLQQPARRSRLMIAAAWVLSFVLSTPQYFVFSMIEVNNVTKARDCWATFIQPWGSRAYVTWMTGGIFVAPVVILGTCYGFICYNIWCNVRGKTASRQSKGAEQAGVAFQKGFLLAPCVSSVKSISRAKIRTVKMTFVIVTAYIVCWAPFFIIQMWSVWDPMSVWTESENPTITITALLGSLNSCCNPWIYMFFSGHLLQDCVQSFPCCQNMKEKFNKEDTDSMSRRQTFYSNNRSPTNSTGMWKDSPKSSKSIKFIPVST
Mu-type opioid receptor (Homo sapiens), sequence (P35372 whole entry): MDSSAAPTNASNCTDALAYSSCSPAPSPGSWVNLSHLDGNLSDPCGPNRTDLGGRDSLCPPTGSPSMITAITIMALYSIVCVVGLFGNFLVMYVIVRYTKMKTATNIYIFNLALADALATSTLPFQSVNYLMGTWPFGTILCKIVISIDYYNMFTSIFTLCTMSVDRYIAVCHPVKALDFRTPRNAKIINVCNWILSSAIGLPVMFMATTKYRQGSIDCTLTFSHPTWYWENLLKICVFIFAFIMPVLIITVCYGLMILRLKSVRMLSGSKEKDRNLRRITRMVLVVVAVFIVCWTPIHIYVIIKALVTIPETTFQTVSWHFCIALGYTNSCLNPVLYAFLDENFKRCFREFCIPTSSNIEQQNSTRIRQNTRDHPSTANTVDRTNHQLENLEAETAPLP
Muscarinic acetylcholine receptor M3 (Homo sapiens), sequence (P20309 whole entry, looked up): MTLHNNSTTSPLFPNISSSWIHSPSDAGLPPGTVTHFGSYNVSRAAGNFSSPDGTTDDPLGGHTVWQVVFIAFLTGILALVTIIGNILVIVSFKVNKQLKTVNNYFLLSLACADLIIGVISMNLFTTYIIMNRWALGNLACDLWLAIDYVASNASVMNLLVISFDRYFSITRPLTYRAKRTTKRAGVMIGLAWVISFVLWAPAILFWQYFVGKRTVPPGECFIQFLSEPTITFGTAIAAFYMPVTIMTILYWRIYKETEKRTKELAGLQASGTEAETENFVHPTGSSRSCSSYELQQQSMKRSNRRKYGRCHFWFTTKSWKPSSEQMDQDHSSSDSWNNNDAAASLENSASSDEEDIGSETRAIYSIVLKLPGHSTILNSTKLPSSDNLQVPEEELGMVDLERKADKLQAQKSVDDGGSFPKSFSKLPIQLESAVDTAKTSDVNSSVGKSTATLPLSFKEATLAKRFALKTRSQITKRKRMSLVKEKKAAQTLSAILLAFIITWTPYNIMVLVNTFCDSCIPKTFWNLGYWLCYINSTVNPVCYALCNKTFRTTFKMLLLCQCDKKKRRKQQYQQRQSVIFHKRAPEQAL

inhibition [1] | inhibition [2] | inhibition [3] | inhibition [4] | Activity [5] | Activity [6] | inhibition [7] | inhibition [8] | inhibition [9] | inhibition [10] | inhibition [11] | inhibition [12] | SMILES | IC50 (SH-SY5Y) | selectivity ratio (S1R (sigma-1 receptor))
-7% | 17% | 5% | 0% | 0% | -2% | 12% | 6% | 5% | -6% | 6% | – | CN(CCCNC(=O)c1ccc([N+](=O)[O-])cc1)Cc1ccccc1 | – | –
12% | -10% | -8% | -1% | 0% | 1% | – | 1% | -2% | 20% | -9% | -5% | COc1ccc(C(=O)NCCCN(C)Cc2ccccc2)cc1 | – | –
– | 20% | -5% | 5% | 0% | 0% | 0% | 3% | – | 20% | 3% | -3% | COc1cccc(C(=O)NCCCN(C)Cc2ccccc2)c1 | – | –
24% | – | -2% | – | 0% | 1% | 5% | -3% | -5% | -9% | 0% | 0% | CN(CCCNC(=O)c1ccc(Br)cc1)Cc1ccccc1 | – | –
-1% | 21% | 4% | -9% | 0% | 0% | 4% | -1% | 18% | – | 18% | – | CN(CCNC(=O)c1ccc(Cl)cc1)Cc1ccccc1 | > 100 µM | > 27800

Continued, molecule first:

SMILES | inhibition [1] | inhibition [2] | inhibition [3] | inhibition [4] | Activity [5] | Activity [6] | inhibition [7] | inhibition [8] | inhibition [9] | inhibition [10] | inhibition [11] | inhibition [12] | IC50 (SH-SY5Y) | selectivity ratio (S1R (sigma-1 receptor))
CN(CCNC(=O)c1ccc([N+](=O)[O-])cc1)Cc1ccccc1 | 5% | – | – | – | 0% | 0% | 3% | -1% | 8% | 15% | 6% | -2% | > 100 µM | > 27800
CN(CCCNC(=O)c1ccc(Cl)cc1)Cc1ccccc1 | 16% | -3% | 5% | -5% | 0% | 2% | 8% | -4% | 9% | 8% | – | -1% | > 100 µM | > 31200
CN(CCCNC(=O)c1ccc(Cl)cc1)CCc1ccccc1 | 10% | 11% | 1% | – | 0% | -1% | 16% | -1% | 6% | 9% | 36% | – | > 100 µM | > 23300
CN(CCNC(=O)c1ccc(C#N)cc1)Cc1ccccc1 | -6% | – | – | 6% | 0% | 0% | 1% | -2% | 0% | 9% | 9% | -2% | > 100 µM | > 83300
CCCc1ccc(C(=O)NCCCN(C)Cc2ccccc2)cc1 | 8% | -6% | 4% | – | 0% | -2% | 15% | -7% | -5% | -4% | 11% | 2% | – | –
CN(CCCNC(=O)c1ccc(C(F)(F)F)cc1)Cc1ccccc1 | 18% | -2% | 10% | 2% | -1% | -2% | 14% | – | – | -1% | 6% | -9% | – | –
CN(CCCNC(=O)c1cccc(Br)c1)Cc1ccccc1 | – | 7% | 3% | -9% | 0% | -2% | 5% | -5% | 7% | 29% | 14% | -4% | > 100 µM | > 25600
